These results are taken from US10479814B2, “Adenosine receptor activation reagent and the uses of thereof” (Zhejiang Subtropical Crops Research Institute, priority 2014, dated 2019).

SMILES strings stand for the structures. “Also recorded” adds a separate entry of the source.

Test [1] has as its system rat middle cerebral artery distal obstruction cerebral ischemia model. Kind of test: dMCAO cerebral ischemia: brain histomorphological staining HE. The format is in vivo. As for the experimental part: Using rat middle cerebral artery distal obstruction cerebral ischemia model. (1) according to rat weight, 10% chloral hydrate (3 ml/kg) was peritoneally injected to anaesthetize. (2) the rat lie on right side and fixed, 1 cm skin incision was cut at connection of inner canthus with external canal, fascia was isolated, muscle tissue, the skull was exposed; (3) a small amount of normal saline was sucked with cotton ball to wipe the skull to ac clear view; (4) fascia was isolated under operating microscope, and the skull was exposed, a hole with diameter of 2 mm circular was drilled at a sute 1/3 of spine; (5) the excess bone debris was washed by a small amount of normal saline, the meninge was push aside, and the middle cerebral artery MCA was exposed; (6) the rat lie in supine position and fixed, an incision was made along middle of throat, and arteria carotis communis CCA on both sides were isolate, pass through with a surgical suture, not ligated temporarily; (7) the MCA was found under operating microscope, burned by a monopolar coagulator, then wash and colled with normal saline; (8) immediately after coagulation, the arteria carotis communis on both sides was ligated, and blocked for 60 min; (9) the wound on head was stitched, after 1 hour the arteria carotis communis on both sides was […], and the skin was stitched, thus the modeling was complete. […]

The subject of test [2] is myeloperoxidase (MPO) activity in mouse renal cortex. Kind of test: kidney ischemia reperfusion: MPO analysis. The format is in vivo. As to conditions: vs IR group, P<0.05; HEA 5 and 7.5 mg/kg; DPCPX 1 mg/kg; DPCPX 1 mg/kg+HEA 5 mg/kg. As for the experimental part:
Male C57BL/6 mice 20-25 g, after one week of adaptive feeding to the animals, were randomly divided into eight groups: sham-operation group, IR group, HEA 5 mg/kg group, HEA 7 mg/kg group, HEA 10 mg/kg group, DPCPX (1 mg/kg) group, DPCPX (1 mg/kg)+HEA (5 mg/kg) group and DPCPX (1 mg/kg)+HEA (7.5 mg/kg) group. The mouse was weighed before operation, then peritoneally injected with pentobarbital sodium 50 mg/kg to anaesthetize the mouse, abdomen was opened by ventromedial incision, blunt dissection and the kidney pedicle was sufficiently exposed, renal ischemia was induced by clapping two side kidney pedicle with non-invasive bulldog clamp, the color of kidney change from bright red to purple black immediately, determination method of success of the experiment model can refer to the methods in literature 7 and 8. At time of 30 min of ischemia the bulldog clamp was loosened, the perfuse was restored, the color of kidney changed gradually from dark red to bright red, showing re perfusion was successful. The wound was stitched. The animals were freely fed water and food. In the sham-operation group, the mice only received operation of abdomen open, kidney pedicle and abdomen suture. […] 9.2.6 Real time quantitative PCR analysis of gene expression of ICAM-1, TNF-α and IL-1β; the sequence of primer used in RT-PCR reaction system is as follow: […]

Test [3] has as its target T1, rat striatum adenosine A2A receptor (Rattus norvegicus, UniProt P30543).
T1 construct: from tissue; host or cells: Wistar rat striatum
As to the kind of experiment: adenosine A2A receptor ligand binding test ([3H]MSX-2). Conditions: rat striatum homogenate, 0.75 nM [3H]MSX-2, 25° C. 30 min; read-out: Ki value of competitive binding with the adenosine A2A receptor.
Description: Using Wistar rat, head was cut and the brain was removed, and cerebral cortex and striatum were separated, respectively weighed, added into 10 fold volume of ice-cooled Tris-HCL buffer solution (50 mM, PH7.5) according to 1:10, the tissue is homogenized, after the suspension was centrifuged the supernatant was discarded, the above-described solution wash was repeated for 3 times, centrifuged again and the supernatant was discarded, the precipitate was again mixed in 50 mM Tris-HCL buffer solution, the protein concentration in rat cerebral cortex determined by Coomassie Brilliant Blue Method (Bradford method) was 0.8 mg/ml, the protein content in rat striatum brain tissue homogenate was 1.3 mg/ml.
To a detect tube the HEA with different concentration (10^−9, 10^−8, 10^−7, 10^−6, 10^−5 mol/L) were added, mixed well, then incubated at 25° C. in water bath on shaking table for 30 min, the reaction liquid was drawn by a cell collector, passed the GF/B glass filter membrane (Watman), reaction was terminated, washed 3 times with Tris-HCl buffer solution, each time 3 ml, the filter membrane was removed and dried, then put into a scintillation vial containing 4 ml of scintillation solution to determine radioactivity. A radioactivity count to the filter membrane was conducted by a scintillation counter.

Test [4] concerns rat middle cerebral artery distal obstruction cerebral ischemia model. Kind of test: dMCAO cerebral ischemia: infarct size by TTC staining. The format is in vivo. As to conditions: HEA 7.5 mg/kg ip, 24 hours after modeling, vs model group.
Test [5] has as its system mouse PD model induced by MPTP. As to the kind of experiment: MPTP induced mouse PD model: pole-climbing method. Format: in vivo. As to conditions: MPTP 30 mg/kg mice; Cordyceps cicadae extract 1500 mg/kg; HEA 10 mg/kg ip; 14 days. The method, then:
(§1) 24±1 g male C57BL/6 mice were randomly divided into six groups: control group, model group, Cordyceps cicadae extract group (1500 mg/kg) (the extract method can refer to Example 3), HEA (5 mg/kg, 10 mg/kg, 15 mg/kg) group. Using mouse PD model induced by 1-methyl-4-phenyl-[…] (MPTP), in Cordyceps cicadae crude extract group and HEA with different concentration group were respectively peritoneal injected for consecutive 14 days, and at Day 11, before 1 hour of drug administration, MPTP 30 mg/kg was peritoneally injected, for consecutive 4 days, after one day after the last administration, a behavior test of pole-climbing ability was conducted, after 4 days the rat wad killed by puling neck and the striatum was removed. The control group was given same amount of normal saline, the model group at Day 11, one hour before the normal saline was given, MPTP 30 mg/kg was peritoneally injected, for four consecutive days.
Heading down, the mouse was placed onto top of a wooden pole with a length of 50 cm, diameter of 10 mm, the time for the mouse clime from top to bottom along the pole was record, the time difference between before and after the modeling was calculate, and analyzed statistically.

Test [6] deals with mouse PD model induced by MPTP. As to the kind of experiment: MPTP induced mouse PD model: TH positive cells in substantia nigra. Format: in vivo. Conditions: MPTP 30 mg/kg mice; Cordyceps cicadae extract 1500 mg/kg; HEA 10 mg/kg ip; 14 days. The method, then: as §1, with “The control group was given same amount of normal saline, the model group at Day 11, one hour before the normal saline was given, MPTP 30 mg/kg was peritoneally injected, for four consecutive days.” left out
After completion of behaviour detection, the heart was perfuse with 4% paraformaldehyde and the brain was removed, fixed, desiccated, embedded, and different parts in substantia nigra region were removed for coronal sectioned, tyrosine hydroxylase was used as specific marker for the neuron. The primary antibody is monoclonal mouse TH antibody (1;1000, Sigma), and the secondary antibody is Alexa fluor 488 fluorescence labeling goat anti-mouse (1;1000, Molecular Probes). Taking photo by a fluorescence microscope, and the TH positive cell in the substantia nigra were counted.

T1 sequence (P30543 whole entry): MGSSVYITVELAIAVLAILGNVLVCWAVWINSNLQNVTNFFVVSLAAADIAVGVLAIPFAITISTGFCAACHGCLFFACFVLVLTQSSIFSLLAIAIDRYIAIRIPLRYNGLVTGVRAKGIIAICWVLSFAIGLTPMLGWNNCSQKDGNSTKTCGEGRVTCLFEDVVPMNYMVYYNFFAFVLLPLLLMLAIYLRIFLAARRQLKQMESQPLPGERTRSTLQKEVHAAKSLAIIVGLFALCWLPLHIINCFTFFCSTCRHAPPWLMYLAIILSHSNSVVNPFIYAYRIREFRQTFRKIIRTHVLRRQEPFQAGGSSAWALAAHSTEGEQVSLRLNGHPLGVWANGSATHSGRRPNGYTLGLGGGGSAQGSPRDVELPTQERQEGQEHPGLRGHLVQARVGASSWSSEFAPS

For `CCCn1c(=O)c2[nH]c(C3CCCC3)nc2n(CCC)c1=O` [DPCPX, reference compound], the “effect of DPCPX on brain protective effect of HEA (HE staining)” value in test [1] (DPCPX 1 mg/kg ip + HEA 7.5 mg/kg ip) was “blocking the brain protective effect of the HAE”. Also, the “myeloperoxidase (MPO) activity in renal cortex” value in test [2] is recorded as “significantly increase MPO activity”.
As for `OCCNc1ncnc2c1ncn2[C@@H]1O[C@H](CO)[C@@H](O)[C@H]1O` [HEA, N(6)-(2-hydroxyethyl)-adenosine], in test [3], the Ki is approximately 8.92 µM. The “infarct size (TTC staining)” value in test [4] is listed as “significantly reduce cerebral infarction area; also recorded: significantly reduce the infarct size of the injured brain”. In test [1] (dMCAO rat, HEA 7.5 mg/kg ip, vs model group), the “brain histomorphology (HE staining)” value is “reduce the cerebral cortex tissue structure loosening caused by ischemia; also recorded: improve cell swelling degree and nuclear aberration, and increases cell number”. The “multilimb coordination ability (pole-climbing)” value in test [5] was “improve multilimb coordination ability of mouse to different degree”. Also, in test [6], the “number of the TH positive cells in substantia nigra” value is given as “increase number of the TH positive cells”. In addition, the “myeloperoxidase (MPO) activity in renal cortex” value in test [2] is “significantly reduced”.
